Results from BindingDB's records for doi:10.1016/j.bmc.2018.05.045 (University of Arizona, 2018).
Where a SMILES comes first, the peptide text is derived from it.

Columns and labels:
[1] = target: T1, Kappa-type opioid receptor (Homo sapiens, UniProt P41145); assay: Agonist activity at KOR (unknown origin) expressed in HEK cells assessed as reduction in cAMP accumulation by split luciferase assay
[2] = target: T1, Kappa-type opioid receptor; assay: Displacement of [3H]U69593 from KOR (unknown origin) expressed in HEK cells

T1 sequence (P41145 whole entry): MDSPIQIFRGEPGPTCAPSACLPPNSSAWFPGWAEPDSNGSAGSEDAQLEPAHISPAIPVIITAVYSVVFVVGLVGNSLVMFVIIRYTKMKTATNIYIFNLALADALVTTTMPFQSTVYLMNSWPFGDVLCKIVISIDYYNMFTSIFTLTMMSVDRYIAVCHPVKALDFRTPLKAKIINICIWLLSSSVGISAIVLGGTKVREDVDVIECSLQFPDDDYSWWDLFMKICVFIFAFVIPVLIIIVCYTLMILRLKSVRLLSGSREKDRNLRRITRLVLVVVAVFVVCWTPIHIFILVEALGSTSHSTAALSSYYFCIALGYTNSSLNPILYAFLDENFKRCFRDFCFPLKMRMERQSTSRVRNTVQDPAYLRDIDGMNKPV

`CC1(C)SSC(C)(C)[C@H](NC(=O)[C@@H](N)Cc2ccc(O)cc2)C(=O)NCC(=O)N[C@@H](Cc2ccccc2)C(=O)N2CCN(CC2)C(=O)[C@H](Cc2ccccc2)NC(=O)CNC(=O)[C@H]1NC(=O)[C@@H](N)Cc1ccc(O)cc1` (HELM PEPTIDE1{Y.[Pen].G.F}|PEPTIDE2{Y.[Pen].G.F}|CHEM1{[C1CN([*:2])CCN1[*:1]]}$PEPTIDE1,PEPTIDE2,2:R3-2:R3|PEPTIDE1,CHEM1,4:R2-1:R1|PEPTIDE2,CHEM1,4:R2-1:R2$$$V2.0) showed an EC50 [1] of 269 nM and a Ki [2] of 5.6 nM.
